Legend:
various kinases = experiment: Off-chip Mobility Shift Assay kinase panel (Carna Biosciences); format: biochemical; conditions: 16D10 at 10 μM
Protocol: Carna Biosciences, Inc. was entrusted to measure the effect of the test compound 16D10 at 10 μM on the activity of each kinase by Off-chip Mobility Shift Assay (MSA) described on the website of Carna Biosciences, Inc. (http://www.carnabio.com/output/pdf/ProfilingProfilingBook_ja. pdf). Specifically, the measurement was performed by the following method.
The test compound is dissolved in and diluted with DMSO to a 100-fold concentration. Then, the solution is diluted 25-fold with assay buffer to prepare a test compound solution. A control is similarly prepared.
(1) […] of a 4-fold compound solution, 5 mL of a 4-fold Substrate/ATP/Metal solution, and […] of a 2-fold kinase solution are prepared with assay buffer (20 mM HEPES, 0.01% Triton X-100, 2 mM DTT, pH 7.5), and are mixed and incubated in a polypropylene 384-well plate at room temperature for from 1 hour or 5 hours* (*the reaction time is set depending on the kinase); (2) […] of termination buffer (QuickScout Screening Assist MSA; Carna Biosciences) is added to each well; (3) the reaction mixture is applied to a LabChip™ system (PerkinElmer), and the peaks of a product and a substrate peptide are separated and quantified; and (4) a kinase reaction is evaluated on the basis of a product ratio (P/(P+S)) calculated from the peak heights of the product (P) and the substrate (S) peptide.

NF-κB [1] = experiment: NF-κB luciferase reporter assay in KCMH-1 cells; format: cell-based, mouse; conditions: 16D10 10 μM
Protocol: The transfection of Path Detect pNF-κB-Luc Plasmid (Stratagane) was performed with X-tremeGENE HP DNA Transfection Reagent in accordance with an accompanying protocol. Mouse keratinocyte KCMH-1 cells were seeded at 1×10^5 cells/ml into a 12-well plate (Falcon (trademark)), and cultured for 24 hours. The following day, first, to 50 μl of Opti-MEM at from 15° C. to 25° C., a 500 ng/μl reporter plasmid solution and a 100 ng/μl pGL4.74 [hRluc/TK] Vector solution were added at 1 μl each. Next, 1.5 μl of X-tremeGENE HP DNA Transfection Reagent was added, and the contents were lightly mixed by inversion and then left to stand still at room temperature for 15 minutes to form a transfection complex. Further, the culture supernatant was removed from the cells that had been cultured for 24 hours, and the cells were washed with PBS. After that, 950 μl of 10% FBS-containing MEMα was added to each well. […]
(§1) The measurement of luciferase activity was performed with Dual-Luciferase (trademark) Reporter Assay System in accordance with an accompanying protocol. […] Immediately after that, a Firefly luciferase luminescence integrated value for 10 seconds was calculated with AB-2200-R Luminescencer PSN (ATTO Corporation). After that, 50 μl of Stop&Glo reagent was added and the contents were lightly mixed, and then a Renilla luciferase luminescence integrated value for 10 seconds was measured.

TSLP [2] = experiment: OVA air pouch model in ICR mouse; format: in vivo
Protocol: (§2) 500 μl of air was subcutaneously injected into the back of an ICR mouse (6-week-old, male, SLC) to form an air pouch (day 1). Further, 500 μl each of air was injected into the air pouch on day 2, day 5, and day 7. 24 hours after that, 300 μl of a solution prepared by dissolving ovalbumin (OVA) at 100 μg/0.3 ml in 2% (w/v) CMC-Na physiological saline that had been subjected to high-pressure steam sterilization and further dissolving penicillin G potassium and streptomycin sulfate at 0.1 mg/ml each therein was injected into the air pouch to induce inflammation. […]
8 hours after the administration of the solution into the air pouch, the mouse was killed through blood removal by cutting the carotid artery under anesthesia. 300 μl of physiological saline was injected into the air pouch so as to be mixed with air pouch internal fluid, and then the air pouch internal fluid was collected and its weight was measured. Its TSLP concentration was measured with Mouse TSLP DuoSet (trademark) ELISA (R&D Systems) in accordance with an accompanying protocol. 14 days after the administration of the solution into the air pouch, blood was collected, and the amount of OVA-specific IgE in serum was measured with an ELISA kit (Anti-ovalbumin IgE (mouse) EIA kit (Cayman 500840)).

NF-κB [3] = experiment: NF-κB luciferase reporter assay in HaCaT cells; format: cell-based, human; conditions: TNF-α 100 ng/ml, 2 hours, 16D10 10 or 100 μM, TPCA-1 10 μM
Protocol: The transfection of Path Detect pNF-κB-Luc Plasmid (Stratagane) was performed with X-tremeGENE HP DNA Transfection Reagent in accordance with an accompanying protocol. Human keratinocyte HaCaT cells were seeded at 0.65×10^5 cells/ml into a 12-well plate (Falcon (trademark)), and cultured for 24 hours. […], first, to 50 μl of Opti-MEM at from 15° C. to 25° C., a 500 ng/μl reporter plasmid solution and a 100 ng/μl pGL4.74[hRluc/TK] Vector solution were added at 1 μl each. Next, 1. 5 μl of X-tremeGENE HP DNA Transfection Reagent was added, and the contents were lightly mixed by inversion and then left to standstill at room temperature for 15 minutes to form a transfection complex. Further, the culture supernatant was removed from the cells that had been cultured for 24 hours, and the cells were washed with PBS. After that, 950 μl of 10% FBS-containing MEMα was added to each well. […]
as §1

TSLP mRNA = TSLP mRNA expression in stimulated HaCaT cells (real-time PCR); format: cell-based, human; conditions: 16D10 10 and 100 μM, 4 hours
Description: […] […] Forward: [NT], Reverse: [NT] rRNA forward: [NT], Reverse: [NT].

TSLP [4] = experiment: TSLP production in KCMH-1 cells (ELISA); format: cell-based, mouse; conditions: 24 hours, culture supernatant
Protocol: KCMH-1 cells (J. Immunol. Methods 402: 9-14 (2013)) were suspended in 10% FBS-containing MEM-α at 1.0×10^5 cells/mL.
The culture supernatant was collected, and a TSLP amount was measured with Mouse TSLP DuoSet (trademark) ELISA (R&D Systems).

TSLP [5] = experiment: TSLP production by TNF-α stimulation in PAM212 cells (ELISA); format: cell-based, mouse; conditions: TNF-α 30 ng/ml, 16D10 1, 3 and 10 μM, 48 hours
Protocol: After the culture, TSLP in the culture solution was measured by EILSA.

IKK, IκB, STAT6 = experiment: Western blot of NF-κB-activating signal and STAT6 phosphorylation in HaCaT cells; format: cell-based, human; conditions: 10 minutes; for TNF-α+IL-4 stimulation-induced increase in phosphorylation of IKK / TNF-α+IL-4 stimulation-induced reduction in inhibitory protein IκB of NF-κB: 16D10 100 μM
TSLP [6] = experiment: LPS-induced air pouch inflammation in Balb/c mouse; format: in vivo; conditions: 8 hours after administration into the air pouch
Protocol: as §2, with “a Balb/c” for “an ICR”, “LPS” for “ovalbumin (OVA)”, “10 ng/ml” for “100 μg/0.3 ml”
8 hours after the administration of the solution into the air pouch, the mouse was killed through blood removal by cutting the carotid artery under anesthesia. 300 μl of physiological saline was injected into the air pouch so as to be mixed with air pouch internal fluid, and then the air pouch internal fluid was collected and its weight was measured. An infiltrating leukocyte count was measured with a hemocytometer after the collected air pouch internal fluid had been diluted with physiological saline as appropriate. […] The supernatant was collected, and its TSLP concentration was measured with Mouse TSLP DuoSet (trademark) ELISA (R&D Systems) in accordance with an accompanying protocol. […]

| SMILES | activity of each kinase (various kinases) | transcriptional activity of NF-κB (NF-κB [1]; KCMH-1 cells, 24 hours) | TSLP production (NF-κB [1]; KCMH-1 mouse keratinocyte cell line) | OVA-specific IgE in serum (TSLP [2]; 14 days after administration into the air pouch) | TSLP production by OVA (TSLP [2]; air pouch internal fluid, 8 hours after administration) | transcriptional activity of NF-κB (NF-κB [3]) | expression of TSLP mRNA (TSLP mRNA; Poly(I:C) 50 μg/ml stimulation) | expression of TSLP mRNA (TSLP mRNA; TNF-α 100 ng/ml stimulation) | TSLP production-suppressing ability (TSLP [4]) | TSLP production by TNF-α (TSLP [5]) | TNF-α+IL-4 stimulation-induced increase in phosphorylation of IKK (IKK, IκB, STAT6) | TNF-α+IL-4 stimulation-induced reduction in inhibitory protein IκB of NF-κB (IKK, IκB, STAT6) | increase in phosphorylation of STAT6 by stimulation (IKK, IκB, STAT6; TNF-α + IL-4, 16D10 100 μM) | TSLP concentration in air pouch internal fluid (TSLP [6]) | infiltrating leukocyte count (TSLP [6]) |
| --- | --- | --- | --- | --- | --- | --- | --- | --- | --- | --- | --- | --- | --- | --- | --- |
| COc1ccc(OC)c(/C=C/C(=O)c2cc(OC)c(OC)cc2CCNC(C)=O)c1 [16D10, (E)-N-[2-[2-[3-(2,5-dimethoxyphenyl)-1-oxo-2-propen-1-yl]-4,5-dimethoxyphenyl]ethyl]acetamide] | did not suppress the activity of each kinase analyzed | without suppressing the transcriptional activity of NF-κB | suppressed TSLP production | suppressed the production of OVA-specific IgE | significantly suppressed TSLP production by OVA | did not suppress the activity | suppressed | suppressed | extremely high TSLP production-suppressing ability | suppressed TSLP production by TNF-α in a concentration-dependent manner | not suppressed | not suppressed | did not suppress | significantly suppressed TSLP production | did not reduce infiltrating leucocytes |
| NC(=O)Nc1sc(-c2ccc(F)cc2)cc1C(N)=O [TPCA-1, [5-(p-Fluorophennyl)-2-ureido]thiophene-3-carboxamide, reference compound] | – | – | – | – | – | suppressed the transcriptional activity of NF-κB | – | – | – | – | suppressed | suppressed | – | – | – |

— US20170304236A1, “ANTIALLERGIC AGENT” (TOHOKU UNIVERSITY, priority 2015, published 2017)
